One assay has as its system breast line MDA468. In words: In vitro cell culture growth assay (MTS), MDA468. Format: cell-based, human. To be noted: Homo sapiens, 72 h, MDA468 cells, three days after drug treatment. The procedure: Human tumor cell lines used include prostate lines LNCap and PC3MM2, breast lines MDA468, MCF7, renal line HTB44 (A498), colon line HCT116, and ovarian line OVCAR3. Cells were plated in 96-well culture plates. One day following plating, the inhibitors were added to cells. Three days after drug treatment, viable cell densities were determined by metabolic conversion (by viable cells) of the dye MTS, a well established cell proliferation assay. The assays were performed using an assay kit purchased from Promega Corp. (Madison, Wis.) following the protocol supplied with the kit. The MTS assay results were read in a 96-well plate reader by measuring absorbance at 490 nm. The effect of each treatment was calculated as percent of control growth relative to the vehicle-treated cells grown in the same culture plate.

The next assay addresses PI3K (Homo sapiens, UniProt P42336). In words: Fluorescence polarization assay for PI3K.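 Also: PI3K kinase reaction on PIP2 with ATP, 30-60 min, product sensed by GST-GRP with red probe in fluorescence polarization (mP), controls without enzyme and at zero time.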 Format: biochemical. To be noted: PI3Kα; read-out: PI3Kα IC50. A general note: In fluorescence polarisation assays a small probe gives low polarisation when free and higher when bound to something large.

By IC50 is commonly meant the concentration needed to halve the response being measured.

Chain of PI3K (P42336 whole entry): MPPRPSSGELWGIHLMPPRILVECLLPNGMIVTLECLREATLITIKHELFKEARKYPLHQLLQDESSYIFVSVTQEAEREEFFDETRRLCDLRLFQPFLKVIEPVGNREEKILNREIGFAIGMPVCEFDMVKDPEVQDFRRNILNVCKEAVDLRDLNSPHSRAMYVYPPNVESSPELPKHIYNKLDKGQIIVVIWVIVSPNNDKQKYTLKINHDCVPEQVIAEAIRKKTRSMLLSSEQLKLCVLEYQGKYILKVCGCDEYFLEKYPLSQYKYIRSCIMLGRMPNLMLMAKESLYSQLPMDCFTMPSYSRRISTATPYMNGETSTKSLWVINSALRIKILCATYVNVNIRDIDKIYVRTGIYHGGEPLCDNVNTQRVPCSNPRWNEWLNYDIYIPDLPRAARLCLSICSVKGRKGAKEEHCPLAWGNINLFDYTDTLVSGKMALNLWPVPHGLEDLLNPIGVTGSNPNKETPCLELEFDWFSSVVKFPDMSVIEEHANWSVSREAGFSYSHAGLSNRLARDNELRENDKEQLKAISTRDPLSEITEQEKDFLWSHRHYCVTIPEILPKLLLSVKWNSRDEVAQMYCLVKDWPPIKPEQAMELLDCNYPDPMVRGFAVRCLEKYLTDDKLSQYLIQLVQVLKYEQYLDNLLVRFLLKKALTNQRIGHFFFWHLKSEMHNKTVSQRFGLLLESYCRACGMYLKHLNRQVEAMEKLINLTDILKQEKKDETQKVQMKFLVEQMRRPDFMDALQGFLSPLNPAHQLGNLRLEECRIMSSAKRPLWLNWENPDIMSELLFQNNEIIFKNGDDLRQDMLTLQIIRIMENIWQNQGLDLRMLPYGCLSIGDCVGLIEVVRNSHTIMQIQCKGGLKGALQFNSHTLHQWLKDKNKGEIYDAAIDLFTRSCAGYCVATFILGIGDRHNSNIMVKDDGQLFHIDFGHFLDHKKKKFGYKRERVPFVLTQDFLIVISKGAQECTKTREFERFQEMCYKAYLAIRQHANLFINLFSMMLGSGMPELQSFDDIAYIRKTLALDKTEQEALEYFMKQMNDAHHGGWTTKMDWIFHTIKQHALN
Chain of PI3K (P27986 whole entry partner): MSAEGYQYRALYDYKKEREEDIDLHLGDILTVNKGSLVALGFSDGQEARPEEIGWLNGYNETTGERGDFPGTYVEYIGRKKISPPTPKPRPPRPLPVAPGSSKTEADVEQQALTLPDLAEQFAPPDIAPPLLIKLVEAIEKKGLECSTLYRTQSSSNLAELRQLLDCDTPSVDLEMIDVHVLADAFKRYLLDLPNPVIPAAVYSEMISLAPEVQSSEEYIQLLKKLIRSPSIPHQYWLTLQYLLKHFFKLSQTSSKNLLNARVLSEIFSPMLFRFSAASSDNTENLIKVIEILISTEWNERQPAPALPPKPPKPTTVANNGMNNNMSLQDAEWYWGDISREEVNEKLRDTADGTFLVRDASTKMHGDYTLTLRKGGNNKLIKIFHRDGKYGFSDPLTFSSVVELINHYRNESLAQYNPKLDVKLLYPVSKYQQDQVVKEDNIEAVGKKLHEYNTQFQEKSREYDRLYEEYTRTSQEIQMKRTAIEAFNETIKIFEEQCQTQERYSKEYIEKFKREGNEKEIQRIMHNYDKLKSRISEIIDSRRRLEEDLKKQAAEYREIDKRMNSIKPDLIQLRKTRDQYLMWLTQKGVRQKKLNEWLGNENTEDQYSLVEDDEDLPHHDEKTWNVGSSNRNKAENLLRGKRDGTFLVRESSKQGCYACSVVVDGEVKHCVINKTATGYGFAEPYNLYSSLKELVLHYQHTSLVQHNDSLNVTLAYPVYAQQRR

`CNC(=O)Cc1ccc(-c2nc(N3CCOCC3)c3cnn(C4CCN(Cc5ccccc5)CC4)c3n2)cc1` [Compound 371, 2-{4-[1-(1-benzylpiperidin-4-yl)-4-morpholin-4-yl-1H-pyrazolo[3,4-d]pyrimidin-6-yl]phenyl}-N-methylacetamide] gave an IC50 with breast line MDA468 of 10 µM.
In turn, `COC(=O)N1CCC(n2ncc3c(N4CCOCC4)nc(-c4ccc(NC(=O)Nc5ccc(CCN6CCCC6)cc5)cc4)nc32)CC1` [Compound 914, methyl 4-{4-morpholin-4-yl-6-[4-({[4-(2-pyrrolidin-1-ylethyl)phenyl]carbamoyl}amino)phenyl]-1H-pyrazolo[3,4-d]pyrimidin-1-yl}piperidine-1-carboxylate] returned a 50% inhibitory concentration (IC50) in the assay with breast line MDA468 of 0.02 µM.
For the compound `CNC(=O)Cc1ccc(-c2nc(N3CCOCC3)c3cnn(C4CCN(Cc5ccccc5)CC4)c3n2)cc1` [Compound 616, 2-{4-[1-(1-benzylpiperidin-4-yl)-4-morpholin-4-yl-1H-pyrazolo[3,4-d]pyrimidin-6-yl]phenyl}-N-methylacetamide], the IC50 in the assay with breast line MDA468 stood at 10 µM.
`CN(C)CCNC(=O)Nc1ccc(-c2nc(N3CCOCC3)c3cnn(C4CCN(Cc5ccccc5)CC4)c3n2)cc1` [Compound 513, 1-{4-[1-(1-benzylpiperidin-4-yl)-4-morpholin-4-yl-1H-pyrazolo[3,4-d]pyrimidin-6-yl]phenyl}-3-[2-(dimethylamino)ethyl]urea] showed an IC50 with breast line MDA468 of 0.6 µM.
In turn, `CNC(=O)Nc1ccc(-c2nc(N3CCOCC3)c3cnn(C4CCN(C(=O)OC)CC4)c3n2)cc1` [Example 476, methyl 4-(6-{4-[(methylcarbamoyl)amino]phenyl}-4-morpholin-4-yl-1H-pyrazolo[3,4-d]pyrimidin-1-yl)piperidine-1-carboxylate] came in with an IC50 in the assay with breast line MDA468 of 0.1 µM.
Still for that read-out and setting: next, `CC(C)OC(=O)N1CCC(n2ncc3c(N4CCOCC4)nc(-c4ccc(NC(=O)NCCF)cc4)nc32)CC1` [Compound 833, isopropyl 4-[6-(4-{[(2-fluoroethyl)carbamoyl]amino}phenyl)-4-morpholin-4-yl-1H-pyrazolo[3,4-d]pyrimidin-1-yl]piperidine-1-carboxylate]: 0.25 µM.
On to `COC(=O)Nc1ccc(-c2nc(N3CCOCC3)c3cnn(C4CCN(Cc5ccccc5)CC4)c3n2)cc1` [Example 154, methyl {4-[1-(1-benzylpiperidin-4-yl)-4-morpholin-4-yl-1H-pyrazolo[3,4-d]pyrimidin-6-yl]phenyl}carbamate], for which the IC50 in the assay with breast line MDA468 is 3 µM.
Compound `COC(=O)N1CCC(n2ncc3c(N4CCOCC4)nc(-c4ccc(NC(=O)NCCF)cc4)nc32)CC1` [Compound 732, methyl 4-[6-(4-{[(2-fluoroethyl)carbamoyl]amino}phenyl)-4-morpholin-4-yl-1H-pyrazolo[3,4-d]pyrimidin-1-yl]piperidine-1-carboxylate] came in with an IC50 with breast line MDA468 of 0.09 µM.
Consider `COC(=O)Nc1ccc(-c2nc(N3CCOCC3)c3cnn(C4CCN(C(=O)c5cnccc5C)CC4)c3n2)cc1` [Example 440, methyl [4-(1-{1-[(4-methylpyridin-3-yl)carbonyl]piperidin-4-yl}-4-morpholin-4-yl-1H-pyrazolo[3,4-d]pyrimidin-6-yl)phenyl]carbamate], for which, on PI3K, the IC50 was 2.5 µM.
`CNC(=O)Nc1ccc(-c2nc(N3CCOCC3)c3cn[nH]c3n2)cc1` [Compound 927, 1-methyl-3-[4-(4-morpholin-4-yl-1H-pyrazolo[3,4-d]pyrimidin-6-yl)phenyl]urea]: the IC50 at PI3K came out at 0.104 µM.
The same measure, in the same setting: in the case of `C[C@@H]1CN(c2nc(-c3cccc(O)c3)nc3c2cnn3-c2ccccc2)C[C@H](C)O1` [Compound 478, 3-{4-[(2R,6S)-2,6-dimethylmorpholin-4-yl]-1-phenyl-1H-pyrazolo[3,4-d]pyrimidin-6-yl}phenol] it was 9.5 µM; in that of `CNC(=S)Nc1ccc(-c2nc(N3CCOCC3)c3cnn(C4CCN(Cc5ccccc5)CC4)c3n2)cc1` [Example 325, 1-{4-[1-(1-benzylpiperidin-4-yl)-4-morpholin-4-yl-1H-pyrazolo[3,4-d]pyrimidin-6-yl]phenyl}-3-methylthiourea], 0.071 µM; in that of `CCOC(=O)Nc1ccc(-c2nc(N3CCOCC3)c3cnn(C4CCN(C(=O)c5ccccc5)CC4)c3n2)cc1` [Compound 628, ethyl {4-[1-(1-benzoylpiperidin-4-yl)-4-morpholin-4-yl-1H-pyrazolo[3,4-d]pyrimidin-6-yl]phenyl}carbamate], 1.58 µM.
As for `COC(=O)Nc1ccc(-c2nc(N3CCOCC3)c3cnn(C4CCN(CC(N)=O)CC4)c3n2)cc1` [Compound 700, methyl (4-{1-[1-(2-amino-2-oxoethyl)piperidin-4-yl]-4-morpholin-4-yl-1H-pyrazolo[3,4-d]pyrimidin-6-yl}phenyl)carbamate], the IC50 on PI3K was determined as 1.43 µM.
On the same count and under the same terms, in the case of `CNC(=O)Nc1cc(F)c(-c2nc(N3CCOCC3)c3cnn(C4CCN(C(=O)c5cccnc5)CC4)c3n2)cc1F` [Example 465, 1-(2,5-difluoro-4-{4-morpholin-4-yl-1-[1-(pyridin-3-ylcarbonyl)piperidin-4-yl]-1H-pyrazolo[3,4-d]pyrimidin-6-yl}phenyl)-3-methylurea] it was 1.54 µM.
Turning to `O=C(Nc1ccc(-c2nc(N3CCOCC3)c3cnn(C4CCN(C(=O)c5cccnc5)CC4)c3n2)cc1)NC1CC1` [Compound 659, 1-cyclopropyl-3-(4-{4-morpholin-4-yl-1-[1-(pyridin-3-ylcarbonyl)piperidin-4-yl]-1H-pyrazolo[3,4-d]pyrimidin-6-yl}phenyl)urea], the IC50 on PI3K is 0.357 µM.
Same read-out and setting: in the case of `CNC(=O)Nc1ccc(-c2nc(N3CCOCC3)c3cnn(-c4ccccc4)c3n2)cc1` [Compound 543, 1-methyl-3-[4-(4-morpholin-4-yl-1-phenyl-1H-pyrazolo[3,4-d]pyrimidin-6-yl)phenyl]urea] it was 0.05 µM.
Consider `NCCC(=O)Nc1ccc(-c2nc(N3CCOCC3)c3cn[nH]c3n2)cc1` [Compound 529, N-[4-(4-morpholin-4-yl-1H-pyrazolo[3,4-d]pyrimidin-6-yl)phenyl]-b-alaninamide], for which the IC50 on PI3K is 0.202 µM.
The same measure, in the same setting: next, `CNC(=O)Nc1ccc(-c2nc(N3CCOCC3)c3cnn(-c4ccccc4)c3n2)cc1` [Example 297, 1-methyl-3-[4-(4-morpholin-4-yl-1-phenyl-1H-pyrazolo[3,4-d]pyrimidin-6-yl)phenyl]urea]: 0.051 µM; `COC(=O)Nc1ccc(-c2nc(N3CCOCC3)c3cnn(C4CCN(C(=O)N5CCN(C)CC5)CC4)c3n2)cc1` [Compound 692, methyl [4-(1-{1-[(4-methylpiperazin-1-yl)carbonyl]piperidin-4-yl}-4-morpholin-4-yl-1H-pyrazolo[3,4-d]pyrimidin-6-yl)phenyl]carbamate]: 0.725 µM; `c1ccc(CN2CCC(n3ncc4c(N5CCOCC5)nc(-c5ccc6ncccc6c5)nc43)CC2)cc1` [Compound 937, 6-[1-(1-benzylpiperidin-4-yl)-4-morpholin-4-yl-1H-pyrazolo[3,4-d]pyrimidin-6-yl]quinoline]: 0.466 µM.
On the same count and under the same terms, next, `CCNC(=O)Nc1ccc(-c2nc(N3CCOCC3)c3cnn(C4CCN(Cc5cccnc5)CC4)c3n2)cn1` [Compound 479, 1-ethyl-3-(5-{4-morpholin-4-yl-1-[1-(pyridin-3-ylmethyl)piperidin-4-yl]-1H-pyrazolo[3,4-d]pyrimidin-6-yl}pyridin-2-yl)urea]: 0.138 µM; `Nc1ccc(-c2nc(N3CCOCC3)c3cn[nH]c3n2)cc1` [Example 285, 4-(4-morpholin-4-yl-1H-pyrazolo[3,4-d]pyrimidin-6-yl)aniline]: 1.61 µM; `COC(=O)Nc1ccc(-c2nc(N3CCOCC3)c3cnn(C4CCN(Cc5ccc(Cl)nc5)CC4)c3n2)cc1` [Compound 698, methyl [4-(1-{1-[(6-chloropyridin-3-yl)methyl]piperidin-4-yl}-4-morpholin-4-yl-1H-pyrazolo[3,4-d]pyrimidin-6-yl)phenyl]carbamate]: 0.619 µM.
In the case of `COC(=O)Nc1ccc(-c2nc(N3CCOCC3)c3cnn(C4CCN(Cc5ccccc5Cl)CC4)c3n2)cc1` [Compound 699, methyl (4-{1-[1-(2-chlorobenzyl)piperidin-4-yl]-4-morpholin-4-yl-1H-pyrazolo[3,4-d]pyrimidin-6-yl}phenyl)carbamate], at PI3K, the IC50 worked out at 0.786 µM.
On to `CNC(=NC#N)Nc1ccc(-c2nc(N3CCOCC3)c3cnn(C4CCN(C(=O)c5cccnc5)CC4)c3n2)cc1` [Compound 656, 2-cyano-1-methyl-3-(4-{4-morpholin-4-yl-1-[1-(pyridin-3-ylcarbonyl)piperidin-4-yl]-1H-pyrazolo[3,4-d]pyrimidin-6-yl}phenyl)guanidine], for which the IC50 on PI3K was determined as 0.382 µM.
Same read-out and setting: next, `COCOc1cncc(-c2nc(N3CCOCC3)c3cnn(C4CCN(Cc5ccccc5)CC4)c3n2)c1` [Compound 931, 1-(1-benzylpiperidin-4-yl)-6-[5-(methoxymethoxy)pyridin-3-yl]-4-morpholin-4-yl-1H-pyrazolo[3,4-d]pyrimidine]: 2 µM; `O=C(NCc1ccco1)Nc1ccc(-c2nc(N3CCOCC3)c3cnn(C4CCN(Cc5cccnc5)CC4)c3n2)cc1` [Compound 376, 1-(2-furylmethyl)-3-(4-{4-morpholin-4-yl-1-[1-(pyridin-3-ylmethyl)piperidin-4-yl]-1H-pyrazolo[3,4-d]pyrimidin-6-yl}phenyl)urea]: 0.359 µM.
On the same count and under the same terms, next, `CCNC(=NC#N)Nc1ccc(-c2nc(N3CCOCC3)c3cnn(C4CCN(Cc5cccnc5)CC4)c3n2)cc1` [Compound 652, 2-cyano-1-ethyl-3-(4-{4-morpholin-4-yl-1-[1-(pyridin-3-ylmethyl)piperidin-4-yl]-1H-pyrazolo[3,4-d]pyrimidin-6-yl}phenyl)guanidine]: 0.916 µM.
